Source: PMC9764404 (ACS infectious diseases, 2022)

What was measured:
Format in all cases: binding
[1] = biological target: T1, LdtAb (Acinetobacter baumannii, UniProt A0A222A2P4); test: LC-MS of acyl-enzyme formation; details: covalent, 2 μM enzyme, 200 μM antibiotic, PBS pH 7.4, 22 °C
[2] = biological target: T1, LdtAb; test: acylation by reporter substrate; details: covalent; very slow acylation
[3] = biological target: T1, LdtAb; test: LC-MS of acyl-enzyme formation; details: covalent; 2 μM enzyme, 200 μM antibiotic; PBS pH 7.4; 22 °C

Structure (SMILES) | % acyl-enzyme after 18 h [1] | acylation by reporter substrate (data not shown) [2] | apparent acylation rate constant k2 [3]
C[C@@H](O)[C@H]1C(=O)N2C(C(=O)O)=C(S[C@@H]3CN[C@H](C(=O)N(C)C)C3)[C@H](C)[C@H]12 [meropenem] | 48% |  | 
C[C@@H](O)[C@H]1C(=O)N2C(C(=O)O)=C(SCCN=CN)C[C@H]12 [imipenem] | 95% |  | 
C[C@@H](O)[C@H]1C(=O)N2C(C(=O)O)=C(S[C@@H]3CN[C@H](CNS(N)(=O)=O)C3)[C@H](C)[C@H]12 [doripenem] | 21% |  | 
O=C(Cc1cccs1)N[C@@H]1C(=O)N2C(C(=O)O)=C(/C=C/c3ccc([N+](=O)[O-])cc3[N+](=O)[O-])CS[C@H]12 [nitrocefin] |  | acylation of LdtAb by nitrocefin took more than six hours to reach completion | 
C[C@@H](O)[C@H]1C(=O)N2C(C(=O)O)=C(S[C@@H]3CN[C@H](C(=O)Nc4cccc(C(=O)O)c4)C3)[C@H](C)[C@H]12 [ertapenem] | 97% |  | 0.22 ± 0.01 h⁻¹
